The nature of this series: log P determination by HPLC (EEC Directive 79/831 Annex V.A8, gradient method). In kind it is physicochemical.

As for `O=C(/C=C/c1c(-c2ccc(F)cc2)nc2sc(C(F)(F)F)nn12)NCC1CC1` [Example 0308], the “Physical data: log P” value is 3.33. On to `CC(C)(C)c1nn2c(/C=C/C(=O)NCC(F)(F)C(F)(F)C(F)(F)F)c(-c3ccccc3Cl)nc2s1` [Example 0815], for which the “Physical data: logP” value was found to be 4.48. As for `CCN(CC)C(=O)/C=C/c1c(-c2ccccc2F)nc2sc(C(F)(F)F)nn12` [Example 0505], the “Physical data: log P” value is recorded as 3.45. As to `CCC(C)NC(=O)/C=C/c1c(-c2cccc(Cl)c2)nc2sc(C(F)(F)F)nn12` (stereo not drawn) [Example 0087], the “Physical data (logP)” value amounted to 3.99. Consider `COc1ccc(-c2nc3sc(C(F)(F)F)nn3c2/C=C/C(=O)N2CCCCC2)cc1OC` [Example 0717], for which the “Physical data: logP” value was 3.41. Consider `CCC(NC(=O)C=Cc1c(-c2ccccc2C)nc2sc(C(F)(F)F)nn12)C1CCCCC1` (stereo not drawn) [Example 0267], for which the “Physical data: log P” value came to 4.92.

In the case of `Cc1cn2c(C=CC(=O)NC(C(C)C)C(F)(F)F)c(-c3ccccc3Cl)nc2s1` (stereo not drawn) [Example 0862], the “Physical data: logP” value is 3.45. In the case of `O=Cc1c(-c2cccnc2Cl)nc2sc(C(F)(F)F)nn12` [IVA116], the “Physical data (logP)” value came to 2.14. Take `CC(COc1ccccc1)NC(=O)/C=C/c1c(-c2ccc(F)cc2)nc2sc(C(F)(F)F)nn12` (stereo not drawn) [Example 0336]: the “Physical data: log P” value was determined as 4.13.

For the molecule `O=C(/C=C/c1c(-c2ccccc2Cl)nc2sc(C(F)(F)F)nn12)NCCc1ccc(Cl)cc1` [Example 0199], the “Physical data (logP)” value came to 4.09. `CC(C)CNC(=O)/C=C/c1c(-c2ccccc2Cl)nc2sc(C(C)(C)C)nn12` [Example 0794]: the “Physical data: logP” value is 3.72. Consider `CSC[C@H](C)NC(=O)/C=C/c1c(-c2ccc(Cl)cc2Cl)nc2sc(C(F)(F)F)nn12` [Example 0001, (2E)-3-[6-(2,4-Dichlorophenyl)-2-(trifluoromethyl)imidazo[2,1-b][1,3,4]thiadiazol-5-yl]-N-[(1S)-1-methyl-2-(methylthio)ethyl]acrylamide], for which the chromatographic logP (HPLC gradient method, acetonitrile/0.1% strength aqueous phosphoric acid or formic acid, preparation examples, read-out: log P) turned out to be 3.91.

For the molecule `Cc1cn2c(/C=C/C(=O)NC(C)C)c(-c3ccccc3Cl)nc2s1` [Example 0868], the “Physical data: logP” value is reported as 2.35. For the molecule `Cc1csc2nc(-c3ccccc3Cl)c(/C=C/C(=O)NCC(F)(F)C(F)(F)C(F)(F)F)n12` [Example 0903], the “Physical data: logP” value is listed as 3.22. As for `CC(NC(=O)/C=C/c1c(-c2ccc(F)cc2)nc2sc(C(F)(F)F)nn12)c1ccccc1` (stereo not drawn) [Example 0331], the “Physical data: log P” value was determined as 3.9. The same measure, in the same setting: the value for `CN(C)C(=O)/C=C/c1c(-c2ccc(Cl)cc2Cl)nc2sc(C(F)(F)F)nn12` [Example 0568] was 3.46. Consider `CC(C)NC(=O)/C=C/c1c(-c2ccccc2Cl)nc2sc(C(C)(C)C)nn12` [Example 0802], for which the “Physical data: logP” value turned out to be 3.33. On the same count and under the same terms, the value for `Cc1cn2c(/C=C/C(=O)NCCC(C)C)c(-c3ccccc3Cl)nc2s1` [Example 0864] was 3.

For `CCC(C)NC(=O)/C=C/c1c(-c2ccccc2Cl)nc2sc(C)cn12` (stereo not drawn) [Example 0869], the “Physical data: logP” value was 2.54. For `O=C(/C=C/c1c(-c2ccc(F)cc2Cl)nc2sc(C(F)(F)F)nn12)NCCCC(F)(F)F` [Example 0912], the “Physical data: logP” value was 3.75. Take `CC(NC(=O)/C=C/c1c(-c2cccc(Cl)c2)nc2sc(C(F)(F)F)nn12)c1cccnc1` (stereo not drawn) [Example 0124]: the “Physical data (logP)” value was 2.8.

In the case of `CC(NC(=O)/C=C/c1c(-c2ccccc2Cl)nc2sc(C(F)(F)C(F)(F)F)nn12)C(F)(F)F` (racemic) [Example 0961], the “Physical data: logP” value was found to be 4.07.

Consider `COc1ccc(-c2nc3sc(C(F)(F)F)nn3c2/C=C/C(=O)NC(C)C(C)C)cc1OC` (stereo not drawn) [Example 0668], for which the “Physical data: logP” value is 3.41. As to `CC(C)CN(C)C(=O)/C=C/c1c(-c2cccc(Cl)c2)nc2sc(C(F)(F)F)nn12` [Example 0138], the “Physical data (logP)” value is reported as 4.63. Turning to `O=C(O)/C=C/c1c(-c2csc(Cl)n2)nc2sc(C(F)(F)C(F)(F)F)nn12` [VA136], the “Physical data (logP)” value is 3.25. Same read-out and setting: under `CCC(CC)NC(=O)/C=C/c1c(-c2ccc(Cl)cc2)nc2sc(C(F)(F)F)nn12` [Example 0064] stands 4.23.

`C[Si](C)(C)CNC(=O)/C=C/c1c(-c2ccc(F)cc2Cl)nc2sc(C(F)(F)F)nn12` [Example 0914]: the “Physical data: logP” value was 4.10.

As for `CN(C)C(=O)/C=C/c1c(-c2cccc(C(F)(F)F)c2)nc2sc(C(F)(F)F)nn12` [Example 0429], the “Physical data: log P” value worked out at 3.68. In the case of `O=C(O)/C=C/c1c(-c2ccccc2Cl)nc2sc(C(F)(F)Cl)nn12` [VA-24], the “Physical data (logP)” value is 2.93.

`O=C(/C=C/c1c(-c2ccccc2Cl)nc2sc(-c3ccc(C(F)(F)F)cc3)nn12)NC1CCC(Cl)CC1` (stereo not drawn) [Example 0855]: the “Physical data: logP” value worked out at 5.27.

For the molecule `O=C(/C=C/c1c(-c2ccccc2Cl)nc2sc(-c3ccc(C(F)(F)F)cc3)nn12)NCC(F)(F)C(F)(F)F` [Example 0858], the “Physical data: logP” value was found to be 4.62.

As to `O=C(/C=C/c1c(-c2ccc(Cl)cc2)nc2sc(C(F)(F)F)nn12)NCC1CC1` [Example 0015], the “Physical data (logP)” value is reported as 3.72. On the same count and under the same terms, under `O=Cc1c(-c2sccc2Cl)nc2sc(C(F)(F)F)nn12` [IVA124] stands 2.92. The same measure, in the same setting: under `O=C(O)/C=C/c1c(-c2ccc(-c3ccccc3)cc2)nc2sc(C(F)(F)F)nn12` [VA120] stands 3.77; under `O=Cc1c(-c2nccs2)nc2sc(C(F)(F)F)nn12` [IVA113], 2.43.

With `Cc1csc2nc(-c3ccccc3Cl)c(/C=C/C(=O)NC3CCCCC3)n12` [Example 0898], the “Physical data: logP” value turned out to be 2.74.

As for `COCC(C)NC(=O)/C=C/c1c(-c2ccccc2C)nc2sc(C(F)(F)F)nn12` (racemic) [Example 0240], the “Physical data: log P” value was determined as 3.07. On to `CC(C)CCNC(=O)/C=C/c1c(-c2ccccc2Cl)nc2sc(C(C)(C)C)nn12` [Example 0798], for which the “Physical data: logP” value was 4.11.

As to `O=C(C=Cc1c(-c2ccccc2Cl)nc2sc(C(F)(F)F)nn12)NC(c1ccc(Cl)cc1)C(F)(F)F` (stereo not drawn) [Example 0919], the “Physical data: logP” value is 4.71. For the molecule `O=C(/C=C/c1c(-c2ccc(Cl)cc2Cl)nc2sc(C(F)(F)F)nn12)N1CCOCC1` [Example 0575], the “Physical data: log P” value is 3.34. Turning to `CC(NC(=O)/C=C/c1c(-c2ccc(Cl)cc2)nc2sc(C(F)(F)F)nn12)c1ccccc1` (stereo not drawn) [Example 0038], the “Physical data (logP)” value was determined as 4.32. The same measure, in the same setting: the value for `O=C(/C=C/c1c(-c2ccc(Cl)cc2)nc2sc(C(F)(F)F)nn12)NC1CC1` [Example 0011] was 3.31. In the case of `O=C(/C=C/c1c(-c2ccc(F)cc2Cl)nc2sc(C(F)(F)F)nn12)N1CCCC(C(F)(F)F)C1` (stereo not drawn) [Example 0648], the “Physical data: logP” value came to 4.28.

As for `Cc1cn2c(/C=C/C(=O)NC3CCCC3)c(-c3ccccc3Cl)nc2s1` [Example 0875], the “Physical data: logP” value was 2.7.

As for `O=Cc1c(-c2ccc(Oc3ccc(Cl)cc3)cc2)nc2sc(C(F)(F)F)nn12` [IVA122], the “Physical data (logP)” value worked out at 4.56. As for `CCN(CC)C(=O)/C=C/c1c(-c2ccc(F)cc2Cl)nc2sc(C(F)(F)F)nn12` [Example 0644], the “Physical data: logP” value is reported as 3.79. With `CC(C)NC(=O)/C=C/c1c(-c2ccccc2Cl)nc2sc(Br)cn12` [Example 0908], the “Physical data: logP” value is 3.82. Regarding `CC(C)C(NC(=O)C=Cc1c(-c2ccc(Cl)nc2)nc2sc(C(F)(F)F)nn12)C(F)(F)F` (stereo not drawn) [Example 0936], the “Physical data: logP” value is on record as 3.89. On to `Cc1cn2c(/C=C/C(=O)NC3CCC3)c(-c3ccccc3Cl)nc2s1` [Example 0874], for which the “Physical data: logP” value is on record as 2.48. On the same count and under the same terms, under `CC(C)(C)c1nn2c(/C=C/C(=O)NC3CCC(C(F)(F)F)CC3)c(-c3ccccc3Cl)nc2s1` (stereo not drawn) [Example 0799] stands 4.32. Take `O=C(/C=C/c1c(-c2ccc(F)cc2)nc2sc(C(F)(F)F)nn12)N1CCOCC1` [Example 0365]: the “Physical data: log P” value is on record as 2.91.

Turning to `COCc1nn2c(/C=C/C(=O)NCC(C)C)c(-c3ccccc3Cl)nc2s1` [Example 0816], the “Physical data: logP” value amounted to 2.71. Consider `CCC(C)NC(=O)/C=C/c1c(-c2ccc(Cl)cc2)nc2sc(C(F)(F)F)nn12` (stereo not drawn) [Example 0016], for which the “Physical data (logP)” value is reported as 3.94.

As for `O=C(O)/C=C/c1c(-c2cccnc2Cl)nc2sc(C(F)(F)F)nn12` [VA118], the “Physical data (logP)” value is on record as 2.1. Same read-out and setting: the value for `CCN(CC)C(=O)/C=C/c1c(-c2ccc(Cl)cc2)nc2sc(C(F)(F)F)nn12` [Example 0070] was 4.16.

For `CC(C)C(NC(=O)C=Cc1c(-c2ccc(F)cc2Cl)nc2sc(C(F)(F)C(F)(F)F)nn12)C(F)(F)F` (stereo not drawn) [Example 0975], the “Physical data: logP” value is given as 4.76. With `CCC(C)NC(=O)/C=C/c1c(-c2ccccc2Cl)nc2scc(C)n12` (stereo not drawn) [Example 0891], the “Physical data: logP” value is reported as 2.35.

Regarding `O=C(/C=C/c1c(-c2cccc(C(F)(F)F)c2)nc2sc(C(F)(F)F)nn12)NCC1CC1` [Example 0379], the “Physical data: log P” value was found to be 3.94. Take `O=C(/C=C/c1c(-c2ccccc2Cl)nc2sc(-c3ccc(C(F)(F)F)cc3)nn12)NC1CC1` [Example 0851]: the “Physical data: logP” value is recorded as 3.75. For `O=C(/C=C/c1c(-c2cccc(C(F)(F)F)c2)nc2sc(C(F)(F)F)nn12)NC1CC1` [Example 0375], the “Physical data: log P” value was 3.59. On to `CCCC(C)NC(=O)/C=C/c1c(-c2ccc(OC)c(OC)c2)nc2sc(C(F)(F)F)nn12` (stereo not drawn) [Example 0662], for which the “Physical data: logP” value was determined as 3.5. For `CCN(CC)C(=O)/C=C/c1c(-c2ccccc2C)nc2sc(C(F)(F)F)nn12` [Example 0292], the “Physical data: log P” value is reported as 3.75.

Regarding `COCc1nn2c(/C=C/C(=O)NC3CCC3)c(-c3ccccc3Cl)nc2s1` [Example 0830], the “Physical data: logP” value is listed as 2.59.

For `O=C(/C=C/c1c(-c2cccc(Cl)c2)nc2sc(C(F)(F)F)nn12)NC1CCC1` [Example 0083], the “Physical data (logP)” value stood at 3.85. `CON(C)C(=O)/C=C/c1c(-c2ccc(Cl)cc2Cl)nc2sc(C(F)(F)F)nn12` [Example 0572]: the “Physical data: log P” value was determined as 3.8.

In the case of `Cc1csc2nc(-c3ccccc3Cl)c(/C=C/C(=O)NC3CCC(C(F)(F)F)CC3)n12` (stereo not drawn) [Example 0887], the “Physical data: logP” value is recorded as 3.04.

Source of the values: patent US20090118286A1, “Heterobicyclic Acrylamides” (Bayer Cropscience AG, priority 2005, published 2009).
